Reference: patent US20260232767A1, “INTERLEUKIN-23 RECEPTOR ANTAGONIST PEPTIDES FOR USE IN THE TREATMENT OF PSORIASIS” (Janssen Pharmaceutica NV, priority 2023, published 2026)

Test system: subjects with moderate-to-severe plaque psoriasis
Experiment: PSSD symptom and sign scores, Example 2
Format: in vivo, human
Conditions: for Change from Baseline in PSSD Sign Score, LSMean / Change from Baseline in PSSD Symptom Score, LSMean: MMRM

CC(=O)NCCCC[C@@H]1NC(=O)[C@H](Cc2c[nH]c3c(C)cccc23)NC(=O)[C@H]([C@@H](C)O)NC(=O)[C@H](CC(N)=O)NC(=O)[C@@H](NC(C)=O)C(C)(C)SSC(C)(C)[C@@H](C(=O)N[C@@H](Cc2ccc(OCCN)cc2)C(=O)N[C@@H](Cc2ccc3ccccc3c2)C(=O)NC2(C(=O)N[C@@H](CCC(=O)O)C(=O)N[C@@H](CC(N)=O)C(=O)N[C@@H](Cc3cccnc3)C(=O)N(C)CC(N)=O)CCOCC2)NC1=O [IL-23 receptor antagonist peptide, Ac-[Pen]*-N-T-[W(7-Me)]-[Lys(Ac)]-[Pen]*-Phe[4-(2-aminoethoxy)]-[2-Nal]-[THP]-E-N-[3-Pal]-Sarc-NH2 (*[Pen]-[Pen]* formdisulfidebond)]
Change from Baseline in PSSD Symptom Score, Mean (Week 4, 50 mg QD): −23.6 | Change from Baseline in PSSD Symptom Score, Median (Week 4, 50 mg QD): −23.0 | Change from Baseline in PSSD Sign Score, LSMean (Week 4, 50 mg QD): −28.0 | Change from Baseline in PSSD Symptom Score, LSMean (Week 4, 50 mg QD): −23.4 | Change from Baseline in PSSD Sign Score, Mean (Week 4, 100 mg BID): −33.3 | Change from Baseline in PSSD Sign Score, Median (Week 4, 100 mg BID): −32.0 | Change from Baseline in PSSD Symptom Score, Mean (Week 4, 100 mg BID): −26.1 | Change from Baseline in PSSD Symptom Score, Median (Week 4, 100 mg BID): −22.0 | Subjects Achieving PSSD Symptom Score 0 (%) (Week 4, 100 mg BID, Baseline Symptom Score ≥1, N=42): (4.8%) | Change from Baseline in PSSD Sign Score, LSMean (Week 4, 100 mg BID): −32.9 | Change from Baseline in PSSD Symptom Score, LSMean (Week 4, 100 mg BID): −24.4 | Change from Baseline in PSSD Sign Score, Mean (Week 4, 100 mg QD): −31.1 | Change from Baseline in PSSD Sign Score, Median (Week 4, 100 mg QD): −32.5 | Change from Baseline in PSSD Symptom Score, Mean (Week 4, 100 mg QD): −19.4 | Change from Baseline in PSSD Symptom Score, Median (Week 4, 100 mg QD): −17.0 | Subjects Achieving PSSD Sign Score 0 (%) (Week 4, 100 mg QD, Baseline Sign Score ≥1, N=43): (2.3%) | Subjects Achieving PSSD Symptom Score 0 (%) (Week 4, 100 mg QD, Baseline Symptom Score ≥1, N=43): (2.3%) | Change from Baseline in PSSD Sign Score, LSMean (Week 4, 100 mg QD): −33.8 | Change from Baseline in PSSD Symptom Score, LSMean (Week 4, 100 mg QD): −24.5 | Change from Baseline in PSSD Sign Score, Mean (Week 8, 25 mg BID): −33.8 | Change from Baseline in PSSD Sign Score, Median (Week 8, 25 mg BID): −38.0 | Change from Baseline in PSSD Symptom Score, Mean (Week 8, 25 mg BID): −27.5 | Change from Baseline in PSSD Symptom Score, Median (Week 8, 25 mg BID): −22.0 | Subjects Achieving PSSD Sign Score 0 (%) (Week 8, 25 mg BID, Baseline Sign Score ≥1, N=41): (2.4%) | Subjects Achieving PSSD Symptom Score 0 (%) (Week 8, 25 mg BID, Baseline Symptom Score ≥1, N=41): (7.3%) | Change from Baseline in PSSD Sign Score, LSMean (Week 8, 25 mg BID): −34.1 | Change from Baseline in PSSD Symptom Score, LSMean (Week 8, 25 mg BID): −27.5 | Change from Baseline in PSSD Sign Score, Mean (Week 8, 25 mg QD): −33.0 | Change from Baseline in PSSD Sign Score, Median (Week 8, 25 mg QD): −40.0 | Change from Baseline in PSSD Symptom Score, Mean (Week 8, 25 mg QD): −32.3 | Change from Baseline in PSSD Symptom Score, Median (Week 8, 25 mg QD): −32.0 | Subjects Achieving PSSD Sign Score 0 (%) (Week 8, 25 mg QD, Baseline Sign Score ≥1, N=43): (4.7%) | Subjects Achieving PSSD Symptom Score 0 (%) (Week 8, 25 mg QD, Baseline Symptom Score ≥1, N=43): (9.3%) | Change from Baseline in PSSD Sign Score, LSMean (Week 8, 25 mg QD): −29.0 | Change from Baseline in PSSD Symptom Score, LSMean (Week 8, 25 mg QD): −27.1 | Change from Baseline in PSSD Sign Score, Mean (Week 8, 50 mg QD): −39.7 | Change from Baseline in PSSD Sign Score, Median (Week 8, 50 mg QD): −40.5 | Change from Baseline in PSSD Symptom Score, Mean (Week 8, 50 mg QD): −35.0 | Change from Baseline in PSSD Symptom Score, Median (Week 8, 50 mg QD): −36.0 | Subjects Achieving PSSD Sign Score 0 (%) (Week 8, 50 mg QD, Baseline Sign Score ≥1, N=43): (7.0%) | Subjects Achieving PSSD Symptom Score 0 (%) (Week 8, 50 mg QD, Baseline Symptom Score ≥1, N=42): (9.5%) | Change from Baseline in PSSD Sign Score, LSMean (Week 8, 50 mg QD): −40.1 | Change from Baseline in PSSD Symptom Score, LSMean (Week 8, 50 mg QD): −34.3 | Change from Baseline in PSSD Sign Score, Mean (Week 8, 100 mg BID): −48.3 | Change from Baseline in PSSD Sign Score, Median (Week 8, 100 mg BID): −52.0 | Change from Baseline in PSSD Symptom Score, Mean (Week 8, 100 mg BID): −41.7 | Change from Baseline in PSSD Symptom Score, Median (Week 8, 100 mg BID): −42.0 | Subjects Achieving PSSD Sign Score 0 (%) (Week 8, 100 mg BID, Baseline Sign Score ≥1, N=42): (9.5%) | Subjects Achieving PSSD Symptom Score 0 (%) (Week 8, 100 mg BID, Baseline Symptom Score ≥1, N=42): (16.7%) | Change from Baseline in PSSD Sign Score, LSMean (Week 8, 100 mg BID): −47.5 | Change from Baseline in PSSD Symptom Score, LSMean (Week 8, 100 mg BID): −39.2 | Change from Baseline in PSSD Sign Score, Mean (Week 8, 100 mg QD): −40.2 | Change from Baseline in PSSD Sign Score, Median (Week 8, 100 mg QD): −43.0 | Change from Baseline in PSSD Symptom Score, Mean (Week 8, 100 mg QD): −27.8 | Change from Baseline in PSSD Symptom Score, Median (Week 8, 100 mg QD): −26.0 | Subjects Achieving PSSD Sign Score 0 (%) (Week 8, 100 mg QD, Baseline Sign Score ≥1, N=43): (7.0%) | Subjects Achieving PSSD Symptom Score 0 (%) (Week 8, 100 mg QD, Baseline Symptom Score ≥1, N=43): (14.0%) | Change from Baseline in PSSD Sign Score, LSMean (Week 8, 100 mg QD): −43.2 | Change from Baseline in PSSD Symptom Score, LSMean (Week 8, 100 mg QD): −33.3 | Change from Baseline in PSSD Sign Score, Mean (Week 12, 25 mg BID): −38.5 | Change from Baseline in PSSD Sign Score, Median (Week 12, 25 mg BID): −40.0 | Change from Baseline in PSSD Symptom Score, Mean (Week 12, 25 mg BID): −32.0 | Change from Baseline in PSSD Symptom Score, Median (Week 12, 25 mg BID): −28.0 | Subjects Achieving PSSD Sign Score 0 (%) (Week 12, 25 mg BID, Baseline Sign Score ≥1, N=41): (7.3%) | Subjects Achieving PSSD Symptom Score 0 (%) (Week 12, 25 mg BID, Baseline Symptom Score ≥1, N=41): (7.3%) | Change from Baseline in PSSD Sign Score, LSMean (Week 12, 25 mg BID): −39.0 | Change from Baseline in PSSD Symptom Score, LSMean (Week 12, 25 mg BID): −32.3 | Change from Baseline in PSSD Sign Score, Mean (Week 12, 25 mg QD): −34.8 | Change from Baseline in PSSD Sign Score, Median (Week 12, 25 mg QD): −40.0 | Change from Baseline in PSSD Symptom Score, Mean (Week 12, 25 mg QD): −31.5 | Change from Baseline in PSSD Symptom Score, Median (Week 12, 25 mg QD): −34.0 | Subjects Achieving PSSD Symptom Score 0 (%) (Week 12, 25 mg QD, Baseline Symptom Score ≥1, N=43): (14.0%) | Change from Baseline in PSSD Sign Score, LSMean (Week 12, 25 mg QD): −30.7 | Change from Baseline in PSSD Symptom Score, LSMean (Week 12, 25 mg QD): −25.8 | Change from Baseline in PSSD Sign Score, Mean (Week 12, 50 mg QD): −42.5 | Change from Baseline in PSSD Sign Score, Median (Week 12, 50 mg QD): −46.0 | Change from Baseline in PSSD Symptom Score, Mean (Week 12, 50 mg QD): −36.3 | Change from Baseline in PSSD Symptom Score, Median (Week 12, 50 mg QD): −37.0 | Subjects Achieving PSSD Sign Score 0 (%) (Week 12, 50 mg QD, Baseline Sign Score ≥1, N=43): (4.7%) | Subjects Achieving PSSD Symptom Score 0 (%) (Week 12, 50 mg QD, Baseline Symptom Score ≥1, N=42): (19.0%) | Change from Baseline in PSSD Sign Score, LSMean (Week 12, 50 mg QD): −43.0 | Change from Baseline in PSSD Symptom Score, LSMean (Week 12, 50 mg QD): −35.7 | Change from Baseline in PSSD Sign Score, Mean (Week 12, 100 mg BID): −49.9 | Change from Baseline in PSSD Sign Score, Median (Week 12, 100 mg BID): −53.0 | Change from Baseline in PSSD Symptom Score, Mean (Week 12, 100 mg BID): −42.3 | Change from Baseline in PSSD Symptom Score, Median (Week 12, 100 mg BID): −41.0 | Subjects Achieving PSSD Sign Score 0 (%) (Week 12, 100 mg BID, Baseline Sign Score ≥1, N=42): (11.9%) | Subjects Achieving PSSD Symptom Score 0 (%) (Week 12, 100 mg BID, Baseline Symptom Score ≥1, N=42): (26.2%) | Change from Baseline in PSSD Sign Score, LSMean (Week 12, 100 mg BID): −48.8 | Change from Baseline in PSSD Symptom Score, LSMean (Week 12, 100 mg BID): −39.5 | Change from Baseline in PSSD Sign Score, Mean (Week 12, 100 mg QD): −39.1 | Change from Baseline in PSSD Sign Score, Median (Week 12, 100 mg QD): −45.0 | Change from Baseline in PSSD Symptom Score, Mean (Week 12, 100 mg QD): −27.9 | Change from Baseline in PSSD Symptom Score, Median (Week 12, 100 mg QD): −27.0 | Subjects Achieving PSSD Sign Score 0 (%) (Week 12, 100 mg QD, Baseline Sign Score ≥1, N=43): (7.0%) | Subjects Achieving PSSD Symptom Score 0 (%) (Week 12, 100 mg QD, Baseline Symptom Score ≥1, N=43): (20.9%) | Change from Baseline in PSSD Sign Score, LSMean (Week 12, 100 mg QD): −42.2 | Change from Baseline in PSSD Symptom Score, LSMean (Week 12, 100 mg QD): −34.7 | Change from Baseline in PSSD Sign Score, Mean (Week 16, 25 mg BID): −41.8 | Change from Baseline in PSSD Sign Score, Median (Week 16, 25 mg BID): −36.5 | Change from Baseline in PSSD Symptom Score, Mean (Week 16, 25 mg BID): −34.0 | Change from Baseline in PSSD Symptom Score, Median (Week 16, 25 mg BID): −28.0 | Subjects Achieving PSSD Sign Score 0 (%) (Week 16, 25 mg BID, Baseline Sign Score ≥1, N=41): (9.8%) | Subjects Achieving PSSD Symptom Score 0 (%) (Week 16, 25 mg BID, Baseline Symptom Score ≥1, N=41): (17.1%) | Change from Baseline in PSSD Sign Score, LSMean (Week 16, 25 mg BID): −40.9 | Change from Baseline in PSSD Symptom Score, LSMean (Week 16, 25 mg BID): −32.7 | Change from Baseline in PSSD Sign Score, Mean (Week 16, 25 mg QD): −38.6 | Change from Baseline in PSSD Sign Score, Median (Week 16, 25 mg QD): −43.0 | Change from Baseline in PSSD Symptom Score, Mean (Week 16, 25 mg QD): −35.8 | Change from Baseline in PSSD Symptom Score, Median (Week 16, 25 mg QD): −34.0
